Patent US20150245597A1, “HETEROZYGOUS MOUSE WITH AN INACTIVATED BRD1 ALLELE AND USES IN PSYCHIATRY” (CAPNOVA A/S, priority 2012, published 2015)

Tests used:
Format in all cases: in vivo, mouse
R mice [1] = experiment: Pre-Pulse Inhibition (PPI) test during pharmacological challenge
Experimental: Gaiting and re-activity of the startle reflex was investigated by Acoustic Startle Response (ASR) and Pre-Pulse Inhibition (PPI) tests. In addition to baseline scores mice were also tested during pharmacological challenge; PCP (2.5 and 5 mg/kg s.c.) and amphetamine (2.5 and 5 mg/kg s.c.).

R mice [2] = experiment: Psychotropic drug-induced locomotor hyperactivity test
Experimental: Psychotropic drug-induced locomotor hyperactivity was established by injections with PCP (1.3, 2.5, and 5 mg/kg s.c.), amphetamine (1.3, 2.5, and 5 mg/kg s.c.) and cocaine (10, 20, and 30 mg/kg s.c.) as opposing saline vehicle s.c. and measured by recording both horizontal locomotor activity and rearing activity in an automated photo-cell equipped home-cage.

R mice [3] = experiment: Tail suspension test (TST) with anti-depressants; details: for depressive equivalent behaviours during TST, difference between R and W mice: imipramine 1 mg/kg and 10 mg/kg, Fluoxetine 5 mg/kg, SC
Experimental: (§2) Depressive equivalent behaviours were assessed by forced swim test (FST) and tail suspension test (TST). Depressive equivalent behaviours (FST and TST) were assessed with anti-depressants (e.g. imipramine at two doses: 1 mg/kg and 10 mg/kg and Fluoxetine: 5 mg/kg, and with normal saline vehicle subcutaneous (SC) injections.

R mice [4] = experiment: Forced swim test (FST) with anti-depressants; details: for depressive equivalent behaviours during FST, difference between R and W mice: imipramine 1 mg/kg and 10 mg/kg, Fluoxetine 5 mg/kg, SC
Experimental: as §2

R mice [5] = experiment: Y-maze continuous alternation test with PCP challenge; details: R mice vs W, PCP 1.3 mg/kg s.c., p<0.05
Experimental: (§1) Spatial learning and spatial working memory was tested in the Morris Water Maze (MWM). Learning was scored based on latency to escape while memory was scored based on frequency and time spent in each zone of the maze. Exploratory and working memory components was addressed by various types of y-maze alternation tasks including spontaneous alternation test with dark phase testing, continuous alternation, and delayed alternation. Both baseline and induced behaviour (PCP 1.3 mg/kg s.c. and 2.5 mg/kg s.c.) was assessed. In all Y-maze tasks, alternation was calculated as the percentage of right choices out of the total arm entries.

R mice [6] = experiment: Y-maze spontaneous alternation test with PCP challenge; details: R mice vs W, PCP 1.3 mg/kg s.c., p<0.01
Experimental: as §1

[7] = Imipramine 10 mg/kg compared with Fluoxetine

SMILES: CC(N)Cc1ccccc1 (stereo not shown) [Amphetamine, amphetamine]
- differences between R and W mice in PPI test when challenged (R mice [1]; amphetamine at any dose (2.5 and 5 mg/kg s.c.)): No differences
- drug-induced locomotor activity response (horizontal and rearing activity) (R mice [2]; R males compared to W mice, amphetamine 5 mg/kg s.c.): obvious hypoactivity

SMILES: CNCCC(Oc1ccc(C(F)(F)F)cc1)c1ccccc1 (stereo not shown) [Fluoxetine]
- depressive equivalent behaviours during TST, difference between R and W mice (R mice [3]): reversed
- depressive equivalent behaviours during FST, difference between R and W mice (R mice [4]): reversed

SMILES: CN(C)CCCN1c2ccccc2CCc2ccccc21 [Imipramine, imipramine]
- effect size on depressive equivalent behaviours (TST) (R mice [3]; [7]): larger effect sizes than Fluoxetine
- depressive equivalent behaviours during TST, difference between R and W mice (R mice [3]): reversed
- effect size on depressive equivalent behaviours (FST) (R mice [4]; [7]): larger effect sizes than Fluoxetine
- depressive equivalent behaviours during FST, difference between R and W mice (R mice [4]): reversed

SMILES: c1ccc(C2(N3CCCCC3)CCCCC2)cc1 [PCP]
- inhibition of the startle in the PPI test (R mice [1]; R males vs W mice, high prepulse intensities (15 db above background noise level), PCP 5 m/kg s.c.): reduced
- Prepulse inhibition, response of R mice as compared to W littermates (R mice [1]; Table 1, males only with PCP): Decreased
- alternation in the continuous alternation test (R mice [5]): significant reduction
- alternation in the spontaneous alternation test (R mice [6]): significant reduction
- drug-induced locomotor hyperactivity (horizontal and rearing activity) (R mice [2]; R males vs W mice, PCP 5 mg/kg s.c.): clear sensitivity
